Several values for one entry are separate records, joined by “and”; a condition that tells them apart may be missing. Equal values may be shown once.
What follows are molecules tested against Replicase polyprotein 1ab (Severe acute respiratory syndrome coronavirus 2, UniProt P0DTD1) (assay: Functional biochemical assay to identify treatments for viral infectious disease that targets SARS-COV-2 nsp3 macrodomain, whereby the mechanism of action displaces an ADP-Ribose modified peptide from the binding site. Utilizing a time-resolved fluorescence method to measure binding by reading the emitted fluorescence intensity in two wavelengths.).
For CC(C)[C@H](Nc1ncnc2[nH]ccc12)C(=O)O, the IC50 was 34.1 µM and 33.8 µM.
For CNC(=O)c1cc2c(N[C@@H](c3ccc4c(c3)OCCO4)C(C)C)ncnc2[nH]1, the IC50 was 0.45 µM and 0.366 µM.
In the case of CCNC(=O)c1cc2c(N[C@@H](c3ccc4c(c3)OCCO4)C(C)C)ncnc2[nH]1, the IC50 is reported as 0.28 µM and 0.305 µM and 0.287 µM and 0.614 µM.
Cc1ncc(-c2cc3c(N[C@@H](c4ccc5c(c4)OCCO5)C(C)C)ncnc3[nH]2)cn1 was tested, and the IC50 was 0.479 µM and 0.585 µM.
With CC(C)[C@@H](Nc1ncnc2[nH]c(-c3cnn(CCC(N)=O)c3)cc12)c1ccc2c(c1)OCCO2 the IC50 was 0.274 µM and 0.319 µM.
For CC(C)[C@@H](Nc1ncnc2[nH]c(C(N)=O)cc12)c1ccc2c(c1)OCCO2, the IC50 was 0.453 µM and 0.466 µM.
With Cn1ncc(-c2cc3c(N[C@@H](c4ccc5c(c4)OCCO5)C(C)(C)C)ncnc3[nH]2)c1C#N the IC50 was 0.309 µM and 0.332 µM.
For CC(C)[C@@H](Nc1ncnc2[nH]c(-c3cnn(C)n3)cc12)c1ccc2c(c1)OCCO2, the IC50 was 0.485 µM and 0.517 µM.
CC(C)C[C@@H](Nc1ncnc2[nH]ccc12)C(=O)O was tested, and the IC50 was greater than 99.5 µM.
CC(C)[C@@H](Nc1ncnc2[nH]c(C3CCS(=O)(=O)CC3)cc12)c1ccc2c(c1)OCCO2 was tested, and the IC50 was 1.19 µM and 1.78 µM.
In the case of CCn1ncc(-c2cc3c(N[C@@H](c4ccc5c(c4)OCCO5)C(C)C)ncnc3[nH]2)c1C#N, the IC50 is reported as 0.857 µM and 0.8 µM.
For COc1cnn(C)c1-c1cc2c(N[C@@H](c3ccc4c(c3)OCCO4)C(C)C)ncnc2[nH]1, the IC50 was 50.9 µM and 55.9 µM.
With C[C@@H](C(=O)O)[C@@H](NC(=O)c1ncnc2[nH]ccc12)c1ccc(Br)cc1 the IC50 was 0.808 µM and 0.532 µM.
Molecule O=C(O)[C@@H]1C[C@H](F)CN1c1ncnc2[nH]ccc12 has an IC50 greater than 99.5 µM.
O=C(O)[C@@H](CC1CC1)Nc1ncnc2[nH]ccc12 showed an IC50 greater than 99.5 µM.
CCC[C@@H](Nc1ncnc2[nH]ccc12)C(=O)O was tested, and the IC50 was greater than 99.5 µM.
For CNC(=O)c1c[nH]c2ncnc(N[C@@H](c3ccc4c(c3)OCCO4)C(C)C)c12, the IC50 was 0.728 µM and 0.692 µM.
O=C(O)[C@@H]1CC2(CCCCC2)CN1c1ncnc2[nH]ccc12 gave an IC50 greater than 99.5 µM.
With CC(C)[C@@H](Nc1ncnc2[nH]ccc12)c1ccc2c(c1)CCCS2(=O)=O the IC50 was 3.01 µM and 2.64 µM.
With CC(C)[C@H](Nc1ncnc2[nH]c(-c3cnn(CC(N)=O)c3)cc12)c1ccc2c(c1)OCCO2 the IC50 was 90 µM and 93.5 µM.
In the case of CC(C)[C@@H](Nc1ncnc2[nH]cc(C(N)=O)c12)c1ccc2c(c1)OCCO2, the IC50 is reported as 0.786 µM and 0.865 µM.
With CN1CC[C@@H]1[C@@H](Nc1ncnc2[nH]ccc12)c1ccc2c(c1)OCCO2 the IC50 was > 99.5 µM and 66 µM.
In the case of COC(=O)c1c[nH]c2ncnc(N[C@@H](c3ccc4c(c3)OCCO4)C(C)C)c12, the IC50 is reported as 3.11 µM and 3.49 µM.
With CC(C)[C@@H](Nc1ncnc2[nH]c(-c3cnn(C(C)C)c3C#N)cc12)c1ccc2c(c1)OCCO2 the IC50 was 1.84 µM and 2.02 µM.
In the case of CO[C@H]1C[C@@H](C(=O)O)N(c2ncnc3[nH]ccc23)C1, the IC50 is reported as 79.4 µM and 83.6 µM.
Molecule COc1nc(N[C@@H](c2ccc3c(c2)OCCO3)C(C)C)c2cc[nH]c2n1 has an IC50 greater than 99.5 µM.
In the case of O=C(O)[C@@H](CC(F)F)Nc1ncnc2[nH]ccc12, the IC50 is reported as 80.7 µM and 94.4 µM.
With O=C(O)[C@@H](Nc1ncnc2[nH]ccc12)C1CC1 the IC50 was 72.2 µM and 72 µM.
O=C(O)[C@H]1C[C@H](O)CN1c1ncnc2[nH]ccc12 gave an IC50 greater than 99.5 µM.
With COc1ccc([C@@H]2CN(C(=O)c3ncnc4[nH]ccc34)C[C@H]2C(=O)O)cc1 the IC50 was greater than 99.5 µM.
In the case of CC(C)[C@@H](Nc1ncnc2[nH]cc(C(=O)N(C)C)c12)c1ccc2c(c1)OCCO2, the IC50 is reported as 1.95 µM and 1.97 µM.
CNc1nc(N[C@@H](c2ccc3c(c2)OCCO3)C(C)C)c2cc[nH]c2n1 gave an IC50 greater than 99.5 µM.
Molecule CC(C)[C@@H](Nc1nc(N(C)C)nc2[nH]ccc12)c1ccc2c(c1)OCCO2 has an IC50 greater than 99.5 µM.
Work on O=C(Nc1ccc(C(=O)N[C@@H]2c3ccccc3C[C@@H]2C(=O)O)cc1)c1ccc2c(c1)OCCO2 yielded an IC50 greater than 99.5 µM.
CC(C)[C@@H](Nc1ncnc2[nH]cc(C#N)c12)c1ccc2c(c1)OCCO2 was tested, and the IC50 was 4.36 µM and 3.82 µM.
COC(=O)c1cc2c(N[C@@H](c3ccc4c(c3)OCCO4)C(C)C)ncnc2[nH]1 was tested, and the IC50 was 5.31 µM and 6.5 µM.
COc1ccc([C@@H](Cc2nn[nH]n2)NC(=O)c2nc(C)nc3[nH]ccc23)cc1 was tested, and the IC50 was 1.84 µM and 1.65 µM.
With CC(C)[C@@H](Nc1ncnc2[nH]cc(S(=O)(=O)N(C)C)c12)c1ccc2c(c1)OCCO2 the IC50 was 3.45 µM and 3.98 µM.
O=C(O)[C@H](CC1CCCCC1)Nc1ncnc2[nH]ccc12 was tested, and the IC50 was 92.3 µM and 91.8 µM.
CNS(=O)(=O)c1c[nH]c2ncnc(N[C@@H](c3ccc4c(c3)OCCO4)C(C)C)c12 was tested, and the IC50 was 2.57 µM and 2.6 µM.
COc1ccc([C@@H](Cc2nn[nH]n2)NC(=O)c2nc(OC)nc3[nH]ccc23)cc1 was tested, and the IC50 was 4.55 µM and 4.97 µM.
CC(C)[C@@H](Nc1ncnc2[nH]c(-c3ccc(C4(C#N)CC4)cc3)cc12)c1ccc2c(c1)OCCO2 gave an IC50 greater than 99.5 µM.
For Cc1nnc(Nc2ccc(C(=O)N[C@@H]3c4cccc(O)c4C[C@@H]3C(=O)O)cc2)o1, the IC50 was 7.16 µM and 7.38 µM.
COc1ccc(C(=O)Nc2ccc(C(=O)N[C@@H]3c4ccccc4C[C@@H]3C(=O)O)cc2)cc1S(=O)(=O)NCCN1CCCC1 was tested, and the IC50 was greater than 99.5 µM.
With CC(C)[C@@H](Nc1ncnc2[nH]ccc12)c1ccc2c(c1)CCNC2=O the IC50 was 15.3 µM and 15 µM.
With O=C(Nc1ccc(C(=O)N[C@@H]2c3ccccc3C[C@@H]2C(=O)O)cc1)c1ccc(C(=O)NC2CC2)cc1 the IC50 was greater than 99.5 µM.
Molecule CC(C)[C@H](Nc1ncnc2[nH]ccc12)c1ccc2c(c1)NC(=O)CO2 has an IC50 greater than 99.5 µM.
For COCCn1ncc(-c2cc3c(N[C@@H](c4ccc5c(c4)OCCO5)C(C)C)ncnc3[nH]2)c1C#N, the IC50 was 0.394 µM and 0.449 µM.
Work on Cc1nnc(Nc2ccc(C(=O)N[C@H]3c4cccc(O)c4C[C@H]3C(=O)O)cc2)o1 yielded an IC50 greater than 99.5 µM.
O=C(O)[C@H]1C[C@@H](F)CN1c1ncnc2[nH]ccc12 gave an IC50 greater than 99.5 µM.
Work on Cc1nnc(Nc2ccc(C(=O)N[C@H]3c4cccc(O)c4C[C@@H]3C(=O)O)cc2)o1 yielded an IC50 greater than 99.5 µM.
For COc1ccc([C@@](C)(CC(=O)O)NC(=O)c2ncnc3[nH]ccc23)cc1, the IC50 was 19.3 µM and 18.2 µM.
CC(C)c1nc(N[C@@H](c2ccc3c(c2)OCCO3)C(C)C)c2cc[nH]c2n1 showed an IC50 greater than 99.5 µM.
For CC(C)[C@@H](Nc1ncnc2[nH]c(-c3cnc(C#N)nc3)cc12)c1ccc2c(c1)OCCO2, the IC50 was 2.52 µM and 2.51 µM.
For CC(C)[C@@H](Nc1ncnc2[nH]c(C(=O)N(C)C)cc12)c1ccc2c(c1)OCCO2, the IC50 was 21.9 µM and 18.9 µM.
N#Cc1ccc(C(=O)Nc2ccc(C(=O)N[C@@H]3c4ccccc4C[C@@H]3C(=O)O)cc2)cc1 showed an IC50 greater than 99.5 µM.
With COc1cc(Nc2ccc(C(=O)N[C@@H]3c4cccc(O)c4C[C@H]3C(=O)O)cc2)[nH]n1 the IC50 was greater than 99.5 µM.
For O=C(Nc1ccc(C(=O)N[C@@H]2c3ccccc3C[C@@H]2C(=O)O)cc1)c1ccc(N2CCC(O)CC2)cc1, the IC50 was greater than 99.5 µM.
O=C(O)[C@H](CC1CC1)Nc1ncnc2[nH]ccc12 showed an IC50 greater than 99.5 µM.
In the case of CC(C)[C@@H](Nc1ncnc2[nH]cc(S(N)(=O)=O)c12)c1ccc2c(c1)OCCO2, the IC50 is reported as 3.43 µM and 3.07 µM.
For CC(C)[C@@H](Nc1ncnc2[nH]c(-c3cccc(C#N)c3)cc12)c1ccc2c(c1)OCCO2, the IC50 was 17.8 µM and 22.1 µM.
With c1nc(N[C@@H](c2ccc3c(c2)OCCO3)C2CNC2)c2cc[nH]c2n1 the IC50 was greater than 99.5 µM.
CNc1nc(C(=O)N[C@@H](Cc2nn[nH]n2)c2ccc(OC)cc2)c2ccnc-2[nH]1 was tested, and the IC50 was 45.7 µM and 44.7 µM.
For CC(C)[C@@H](Nc1ncnc2[nH]c(-c3ccoc3)cc12)c1ccc2c(c1)OCCO2, the IC50 was 1.52 µM and 1.64 µM.
With COc1ccc([C@@H](CC(=O)O)NC(=O)c2c[nH]c3c(NC(=O)NC4CC4)cccc23)cc1 the IC50 was greater than 99.5 µM.
CC(C)[C@@H](Nc1ncnc2[nH]cc(Br)c12)c1ccc2c(c1)OCCO2 was tested, and the IC50 was 10.1 µM and 11.8 µM.
For CC(C)[C@@H](Nc1nc(C2CC2)nc2[nH]ccc12)c1ccc2c(c1)OCCO2, the IC50 was greater than 99.5 µM.
Molecule CCC[C@H](Nc1ncnc2[nH]ccc12)C(=O)O has an IC50 greater than 99.5 µM.
O=C(O)[C@@H]1C[C@@H](O)CN1c1ncnc2[nH]ccc12 was tested, and the IC50 was greater than 99.5 µM.

Reference: ChEMBL document CHEMBL5441456, “ASAP - SARS-CoV-2 nsp3 macrodomain dose response” (2024)
